Test: Partition of sevoflurane and HFIP in solvent/HF system
Assay type: physicochemical
Settings: equal volumes, 25 C, fraction of original compound found in the solvent, by gas chromatography; for Partition Coefficients of Sevoflurane and HFIP in solvent/HF system: 1,2,3-trichloropropane: solvent 1,2,3-trichloropropane / HF; for Partition Coefficients of Sevoflurane and HFIP in solvent/HF system: HC-0.8 oil: solvent HC-0.8 oil (mixture of tetrachlorobutanes) / HF; for Partition Coefficients of Sevoflurane and HFIP in solvent/HF system: Krytox: solvent Krytox (1:1 mixture of DuPont Krytox GLP 100 and K6) / HF
Description: The partitions of sevoflurane and of HFIP in solvent/HF system were measured by mixing a small amount of either sevoflurane or HFIP with a two-layer mixture of equal volumes of a particular solvent and HF at 25 C. After enough mixing to reach equilibrium, the fraction of original compound found in the solvent was determined by gas chromatography and quantified using standards.

Compound	Partition Coefficients of Sevoflurane and HFIP in solvent/HF system: 1,2,3-trichloropropane	Partition Coefficients of Sevoflurane and HFIP in solvent/HF system: HC-0.8 oil	Partition Coefficients of Sevoflurane and HFIP in solvent/HF system: Krytox	Partition Coefficients of Sevoflurane and HFIP in solvent/HF system: Isooctane	Partition Coefficients of Sevoflurane and HFIP in solvent/HF system: Perfluoromethyldecalin
OC(C(F)(F)F)C(F)(F)F [HFIP, 1,1,1,3,3,3-hexafluoro-2-propanol]	<0.005	0.01	<0.005	<0.005	<0.005
FCOC(C(F)(F)F)C(F)(F)F [Sevoflurane, fluoromethyl 2,2,2-trifluoro-1-(trifluoromethyl)ethyl ether]	0.45	1.00	0.32	0.30	0.22
